# Assay results reported in patent US12350288B2, “Inducing caspase activity” (Dow Global Technologies LLC, priority 2019, dated 2025).
# Test system: HT-29 cells (human colon; colorectal adenocarcinoma)
# Description: HT-29 (ATCC® HTB-38™) cells (which contained approximately 1×10^6 cells per mL) were initiated and seeded into a T-25 flask containing McCoy's 5A and fetal bovine serum (10% (v/v)). […] The cells were grown in a humidified incubator (SANYO INCT-16-CMT; MCO-19AIC (UV)) maintained at 37° C. and 5% CO2. Then, the cells were rinsed with 1× Dulbecco's Phosphate-Buffered Saline and sub-cultured in T-75 flasks 1 to 3 times per week using 1× Trypsin-EDTA, applied for ≤5 minutes; enzymatic action of the trypsin-EDTA was stopped by adding complete growth medium to the detached cells. Then, upon reaching 80 to 90% confluency the cells were split into the following split ratio ranges: 1:5 to 1:16. Subculture and growth expansion activities were recorded, such as passage number, % confluency, % viability (only on experimental set-up day), and cell morphology throughout all phases. The cells were maintained in log-phase growth.
# Cell culture plating was performed as follows. A cell suspension from a single 80 to 90% confluent T-75 flask was harvested with trypsin-EDTA and complete growth medium. To obtain cell concentration and viability, cell counts were obtained using a COUNTESS automated cell counter (INVITROGEN C10227; CNTR-7-CMT) in which 2 chambers of each slide were provided with 10 μL each of 1:1, 0.4% trypan-blue dye (INVITROGEN T10282) and cell suspension. […]
substance,measurement,value
Poly(ethylene glycol) methyl ether tosylate,viability,≥ 70%
